The source of these data is patent publication US20100311714A1, “1H-IMIDAZO[4,5-c]QUINOLINONE COMPOUNDS” (priority 2009, published 2010).

SMILES strings stand for the structures. Read-outs that look alike come from different tables or passages of the source.

Series [1] is described as follows: Parallel Artificial Membrane Permeability Assay (PAMPA) at pH 6.8. It counts as physicochemical. The procedure, abridged:
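PAMPA permeability measured at pH 6.8 following the Wohnsland and Faller method; value reported as log Pe.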
For orientation: In PAMPA a lipid-coated filter parts donor from acceptor wells.

Series [2] concerns the target T1, PI3K beta (Homo sapiens, UniProt P42338).
T1 construct: for the full-length p110-b subunit are generated and fused by overlapping PCR; His tag (C); made in house; host or cells: baculovirus BV949; Tn5 (Trichoplusia ni) or TiniPro insect cells
As to the kind of experiment: PI3K beta kinase assay (Kinase-Glo luminescence). It counts as biochemical. Summed up: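 PI3Kβ construct BV949 (p85 iSH2–p110β full-length, C-His), 25 nM, reacted with 1 μM ATP and 10 μg/mL phosphatidylinositol in Tris pH 7.5, MgCl2, NaCl, CHAPS, DTT buffer, 60 min at room temperature. Remaining ATP by Kinase-Glo luminescence; IC50 from 4-parameter logistic fit of 8 concentrations.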
On the technique in general: Kinase-Glo measures the ATP left after a reaction by luminescence.

T1 sequence (P42338 with tags, fused parts or gaps limits assumed): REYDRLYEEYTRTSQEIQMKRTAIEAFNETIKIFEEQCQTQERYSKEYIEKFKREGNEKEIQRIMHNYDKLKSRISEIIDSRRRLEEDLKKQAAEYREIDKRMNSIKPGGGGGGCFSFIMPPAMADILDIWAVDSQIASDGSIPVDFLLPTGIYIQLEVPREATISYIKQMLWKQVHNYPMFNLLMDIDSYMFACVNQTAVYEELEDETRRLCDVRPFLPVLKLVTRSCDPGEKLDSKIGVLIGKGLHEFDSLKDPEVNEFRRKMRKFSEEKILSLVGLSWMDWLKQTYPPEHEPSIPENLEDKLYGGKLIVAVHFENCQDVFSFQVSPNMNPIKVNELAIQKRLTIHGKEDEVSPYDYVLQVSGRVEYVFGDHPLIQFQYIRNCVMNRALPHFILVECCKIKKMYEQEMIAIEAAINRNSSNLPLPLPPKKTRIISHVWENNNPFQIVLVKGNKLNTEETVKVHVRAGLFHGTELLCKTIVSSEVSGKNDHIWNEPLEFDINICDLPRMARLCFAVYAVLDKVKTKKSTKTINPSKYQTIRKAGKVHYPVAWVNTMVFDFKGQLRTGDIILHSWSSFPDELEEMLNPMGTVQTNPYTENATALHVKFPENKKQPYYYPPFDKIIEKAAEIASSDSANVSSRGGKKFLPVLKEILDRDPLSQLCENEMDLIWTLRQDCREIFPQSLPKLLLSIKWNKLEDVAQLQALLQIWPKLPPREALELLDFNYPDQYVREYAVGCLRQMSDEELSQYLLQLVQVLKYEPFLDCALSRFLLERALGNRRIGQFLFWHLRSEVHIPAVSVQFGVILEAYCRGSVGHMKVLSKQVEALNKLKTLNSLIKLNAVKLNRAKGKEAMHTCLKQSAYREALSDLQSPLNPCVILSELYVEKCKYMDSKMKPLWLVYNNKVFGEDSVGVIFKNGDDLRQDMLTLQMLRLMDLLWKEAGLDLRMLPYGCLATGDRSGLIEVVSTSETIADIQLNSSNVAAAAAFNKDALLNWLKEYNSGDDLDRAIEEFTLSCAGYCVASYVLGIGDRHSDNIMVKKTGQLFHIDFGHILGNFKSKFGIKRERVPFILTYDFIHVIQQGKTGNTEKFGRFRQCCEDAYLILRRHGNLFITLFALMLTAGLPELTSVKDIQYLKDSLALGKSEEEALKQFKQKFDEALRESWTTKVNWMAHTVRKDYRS

`CNc1ncc(-c2ccc3ncc4c(c3c2)n(-c2ccc(F)nc2C)c(=O)n4C)cc1C(F)(F)F` [Example 7.13, 1-(6-Fluoro-2-methyl-pyridin-3-yl)-3-methyl-8-(6-methylamino-5-trifluoromethyl-pyridin-3-yl)-1,3-dihydro-imidazo[4,5-c]quinolin-2-one]: the “HT-Perm logPe pH6.8” value in series [1] is −3.7. The IC50 in series [2] (read-out: EPK_PI3Kbeta/IC50) worked out at 42 nM.

Turning to `CNC(=O)c1cc(-c2ccc3ncc4c(c3c2)n(-c2ccc(F)nc2C)c(=O)n4C)cnc1N` [Example 7.14, 2-Amino-5-[1-(6-fluoro-2-methyl-pyridin-3-yl)-3-methyl-2-oxo-2,3-dihydro-1H-imidazo[4,5-c]quinolin-8-yl]-N-methyl-nicotinamide], the “HT-Perm logPe pH6.8” value in series [1] was −5.9. Moreover, the IC50 in series [2] (read-out: EPK_PI3Kbeta/IC50) turned out to be 14 nM.

For the compound `CCOCc1cc(-c2ccc3ncc4c(c3c2)n(-c2ccc(F)nc2C)c(=O)n4C)cnc1N` [Example 7.15, 8-(6-Amino-5-ethoxymethyl-pyridin-3-yl)-1-(6-fluoro-2-methyl-pyridin-3-yl)-3-methyl-1,3-dihydro-imidazo[4,5-c]quinolin-2-one], in series [1], the “HT-Perm logPe pH6.8” value is on record as −4. In addition, the IC50 in series [2] (read-out: EPK_PI3Kbeta/IC50) came to 194 nM.

As for `Cc1nc(F)ccc1-n1c(=O)n(C)c2cnc3ccc(-c4cncc(N)c4)cc3c21` [Example 7.16, 8-(5-Amino-pyridin-3-yl)-1-(6-fluoro-2-methyl-pyridin-3-yl)-3-methyl-1,3-dihydro-imidazo[4,5-c]quinolin-2-one], the “HT-Perm logPe pH6.8” value in series [1] is −6. For the same compound, the IC50 in series [2] (read-out: EPK_PI3Kbeta/IC50) was 236 nM.

Turning to `COc1ccc(-n2c(=O)n(C)c3cnc4ccc(-c5cnc(N)c(C(F)(F)F)c5)cc4c32)c(OC)n1` [Example 8.1, 8-(6-Amino-5-trifluoromethyl-pyridin-3-yl)-1-(2,6-dimethoxy-pyridin-3-yl)-3-methyl-1,3-dihydro-imidazo[4,5-c]quinolin-2-one], the “HT-perm/logPe pH6.8” value in series [1] is −4.1. Further, the IC50 in series [2] (read-out: PI3Kbeta/IC50) turned out to be 23 nM.

Turning to `COCCOc1cc(-c2ccc3ncc4c(c3c2)n(-c2ccc(OC)nc2OC)c(=O)n4C)cnc1C` [Example 8.9, 1-(2,6-Dimethoxy-pyridin-3-yl)-8-[5-(2-methoxy-ethoxy)-6-methyl-pyridin-3-yl]-3-methyl-1,3-dihydro-imidazo[4,5-c]quinolin-2-one], the “HT-Perm logPe pH6.8” value in series [1] is −3.9. For the same compound, the IC50 in series [2] (read-out: EPK_PI3Kbeta/IC50) worked out at 43 nM.

Take `COc1ccc(-n2c(=O)n(C)c3cnc4ccc(-c5ccc6nccn6c5)cc4c32)c(OC)n1` [Example 8.10, 1-(2,6-Dimethoxy-pyridin-3-yl)-8-imidazo[1,2-a]pyridin-6-yl-3-methyl-1,3-dihydro-imidazo[4,5-c]quinolin-2-one]: the “HT-Perm logPe pH6.8” value in series [1] is listed as −3.9. Besides, the IC50 in series [2] (read-out: EPK_PI3Kbeta/IC50) is 1340 nM.

Take `COCc1ncc(-c2ccc3ncc4c(c3c2)n(-c2ccc(OC)nc2OC)c(=O)n4C)cc1OC` [Example 8.12, 1-(2,6-Dimethoxy-pyridin-3-yl)-8-(5-methoxy-6-methoxymethyl-pyridin-3-yl)-3-methyl-1,3-dihydro-imidazo[4,5-c]quinolin-2-one]: the “HT-Perm logPe pH6.8” value in series [1] is −4. Further, in series [2] (read-out: EPK_PI3Kbeta/IC50), the IC50 amounted to 212 nM.

For `COc1nc(N2CCNCC2)ccc1-n1c(=O)n(C)c2cnc3ccc(-c4cnc(N(C)C)nc4)cc3c21` [Example 9.4, 8-(2-Dimethylamino-pyrimidin-5-yl)-1-(2-methoxy-6-piperazin-1-yl-pyridin-3-yl)-3-methyl-1,3-dihydro-imidazo[4,5-c]quinolin-2-one], the “HT-Perm logPe pH6.8” value in series [1] is on record as −6.1. In addition, the IC50 in series [2] (read-out: EPK_PI3Kbeta/IC50) is 142 nM.

With `CCNc1cc(-c2ccc3ncc4c(c3c2)n(-c2ccc(OC)nc2C)c(=O)n4C)cnc1C` [Example 11.7, 8-(5-Ethylamino-6-methyl-pyridin-3-yl)-1-(6-methoxy-2-methyl-pyridin-3-yl)-3-methyl-1,3-dihydro-imidazo[4,5-c]quinolin-2-one], in series [1], the “HT-Perm logPe pH6.8” value is recorded as −3.7. For the same compound, the IC50 in series [2] (read-out: EPK_PI3Kbeta/IC50) was 6 nM.

For `COc1ccc(-n2c(=O)n(C)c3cnc4ccc(-c5cnc(CO)c(OC)c5)cc4c32)c(C)n1` [Example 11.8, 8-(6-Hydroxymethyl-5-methoxy-pyridin-3-yl)-1-(6-methoxy-2-methyl-pyridin-3-yl)-3-methyl-1,3-dihydro-imidazo[4,5-c]quinolin-2-one], the “HT-Perm logPe pH6.8” value in series [1] was −3.9. The IC50 in series [2] (read-out: EPK_PI3Kbeta/IC50) was 2590 nM.

Consider `CCN(C)c1ccc(-n2c(=O)n(C)c3cnc4ccc(-c5ccc(NC)nc5)cc4c32)c(C)n1` [Example 12.1, 1-[6-(Ethyl-methyl-amino)-2-methyl-pyridin-3-yl]-3-methyl-8-(6-methylamino-pyridin-3-yl)-1,3-dihydro-imidazo[4,5-c]quinolin-2-one], for which, in series [1], the “HT-Perm logPe pH6.8” value was −4.1. The IC50 in series [2] (read-out: EPK_PI3Kbeta/IC50) is 154 nM.

In the case of `CCNc1cc(-c2ccc3ncc4c(c3c2)n(-c2ccc(N(C)CC)nc2C)c(=O)n4C)cnc1C` [Example 12.2, 8-(5-Ethylamino-6-methyl-pyridin-3-yl)-1-[6-(ethyl-methyl-amino)-2-methyl-pyridin-3-yl]-3-methyl-1,3-dihydro-imidazo[4,5-c]quinolin-2-one], the “HT-Perm logPe pH6.8” value in series [1] is recorded as −4. For the same compound, in series [2] (read-out: EPK_PI3Kbeta/IC50), the IC50 worked out at 49 nM.

Turning to `CCOc1ccc(-c2ccc3ncc4c(c3c2)n(-c2ccc(OCCOC)nc2C)c(=O)n4C)cn1` [Example 13.1, 8-(6-Ethoxy-pyridin-3-yl)-1-[6-(2-methoxy-ethoxy)-2-methyl-pyridin-3-yl]-3-methyl-1,3-dihydro-imidazo[4,5-c]quinolin-2-one], in series [1], the “HT-Perm logPe pH6.8” value is −4. Also, the IC50 in series [2] (read-out: EPK_PI3Kbeta/IC50) came out at 1950 nM.

Turning to `COCCOc1ccc(-n2c(=O)n(C)c3cnc4ccc(-c5cnc(N)c(C(F)(F)F)c5)cc4c32)c(C)n1` [Example 13.2, 8-(6-Amino-5-trifluoromethyl-pyridin-3-yl)-1-[6-(2-methoxy-ethoxy)-2-methyl-pyridin-3-yl]-3-methyl-1,3-dihydro-imidazo[4,5-c]quinolin-2-one], the “HT-Perm logPe pH6.8” value in series [1] is given as −3.7. The IC50 in series [2] (read-out: EPK_PI3Kbeta/IC50) turned out to be 20 nM.

With `CNc1ccc(-c2ccc3ncc4c(c3c2)n(-c2ccc(OCCOC)nc2C)c(=O)n4C)cn1` [Example 13.3, 1-[6-(2-Methoxy-ethoxy)-2-methyl-pyridin-3-yl]-3-methyl-8-(6-methylamino-pyridin-3-yl)-1,3-dihydro-imidazo[4,5-c]quinolin-2-one], the “HT-Perm logPe pH6.8” value in series [1] is on record as −4. Also, in series [2] (read-out: EPK_PI3Kbeta/IC50), the IC50 was determined as 502 nM.

`CCNc1cc(-c2ccc3ncc4c(c3c2)n(-c2ccc(OCCOC)nc2C)c(=O)n4C)cnc1C` [Example 13.4, 8-(5-Ethylamino-6-methyl-pyridin-3-yl)-1-[6-(2-methoxy-ethoxy)-2-methyl-pyridin-3-yl]-3-methyl-1,3-dihydro-imidazo[4,5-c]quinolin-2-one]: in series [1], the “HT-Perm logPe pH6.8” value is −4.1. Further, the IC50 in series [2] (read-out: EPK_PI3Kbeta/IC50) was determined as 62 nM.

As to `CNc1ncc(-c2ccc3ncc4c(c3c2)n(-c2ccc(OCCOC)nc2C)c(=O)n4C)cn1` [Example 13.5, 1-[6-(2-Methoxy-ethoxy)-2-methyl-pyridin-3-yl]-3-methyl-8-(2-methylamino-pyrimidin-5-yl)-1,3-dihydro-imidazo[4,5-c]quinolin-2-one], the “HT-Perm logPe pH6.8” value in series [1] is reported as −4.3. Further, in series [2] (read-out: EPK_PI3Kbeta/IC50), the IC50 turned out to be 658 nM.

For `CCOc1ccc(-c2ccc3ncc4c(c3c2)n(-c2ccc(C)nc2C)c(=O)n4C)cn1` [Example 14.2, 1-(2,6-Dimethyl-pyridin-3-yl)-8-(6-ethoxy-pyridin-3-yl)-3-methyl-1,3-dihydro-imidazo[4,5-c]quinolin-2-one], in series [1], the “HT-Perm logPe pH6.8” value is −3.8. Besides, in series [2] (read-out: EPK_PI3Kbeta/IC50), the IC50 turned out to be 358 nM.

On to `Cc1ccc(-n2c(=O)n(C)c3cnc4ccc(-c5cnc(N(C)C)nc5)cc4c32)c(C)n1` [Example 14.3, 8-(2-Dimethylamino-pyrimidin-5-yl)-1-(2,6-dimethyl-pyridin-3-yl)-3-methyl-1,3-dihydro-imidazo[4,5-c]quinolin-2-one], for which the “HT-Perm logPe pH6.8” value in series [1] is listed as −3.8. For the same compound, the IC50 in series [2] (read-out: EPK_PI3Kbeta/IC50) amounted to 396 nM.

`CNc1ncc(-c2ccc3ncc4c(c3c2)n(-c2ccc(C)nc2C)c(=O)n4C)cn1` [Example 14.4, 1-(2,6-Dimethyl-pyridin-3-yl)-3-methyl-8-(2-methylamino-pyrimidin-5-yl)-1,3-dihydro-imidazo[4,5-c]quinolin-2-one]: the “HT-Perm logPe pH6.8” value in series [1] is on record as −4.6. Also, the IC50 in series [2] (read-out: EPK_PI3Kbeta/IC50) was 282 nM.

Consider `Cc1ccc(-n2c(=O)n(C)c3cnc4ccc(-c5cnc(N)c(C(F)(F)F)c5)cc4c32)c(C)n1` [Example 14.5, 8-(6-Amino-5-trifluoromethyl-pyridin-3-yl)-1-(2,6-dimethyl-pyridin-3-yl)-3-methyl-1,3-dihydro-imidazo[4,5-c]quinolin-2-one], for which, in series [1], the “HT-Perm logPe pH6.8” value was −3.8. The IC50 in series [2] (read-out: EPK_PI3Kbeta/IC50) came out at 9 nM.

Regarding `CCNc1cc(-c2ccc3ncc4c(c3c2)n(-c2ccc(C)nc2C)c(=O)n4C)cnc1C` [Example 14.6, 1-(2,6-Dimethyl-pyridin-3-yl)-8-(5-ethylamino-6-methyl-pyridin-3-yl)-3-methyl-1,3-dihydro-imidazo[4,5-c]quinolin-2-one], the “HT-Perm logPe pH6.8” value in series [1] was −4.1. The IC50 in series [2] (read-out: EPK_PI3Kbeta/IC50) came out at 50 nM.

Take `Cc1ccc(-n2c(=O)n(C)c3cnc4ccc(-c5cnc6c(ccn6C)c5)cc4c32)c(C)n1` [Example 14.7, 1-(2,6-Dimethyl-pyridin-3-yl)-3-methyl-8-(1-methyl-1H-pyrrolo[2,3-b]pyridin-5-yl)-1,3-dihydro-imidazo[4,5-c]quinolin-2-one]: in series [1], the “HT-Perm logPe pH6.8” value is reported as −4.3. Besides, the IC50 in series [2] (read-out: EPK_PI3Kbeta/IC50) turned out to be 1100 nM.

In the case of `Cc1ccc(-n2c(=O)n(C)c3cnc4ccc(-c5cncc(NC(C)C)c5)cc4c32)c(C)n1` [Example 14.8, 1-(2,6-Dimethyl-pyridin-3-yl)-8-(5-isopropylamino-pyridin-3-yl)-3-methyl-1,3-dihydro-imidazo[4,5-c]quinolin-2-one], the “HT-Perm logPe pH6.8” value in series [1] was −4.1. For the same compound, the IC50 in series [2] (read-out: EPK_PI3Kbeta/IC50) worked out at 53 nM.
